For series [1], the target named is CYP2D6 (Homo sapiens (Human), UniProt P10635). Put plainly: Inhibition of CYP2D6 enzymatic activity in human liver microsomes. Type of series: in vitro ADME. The following applies: substrate dextromethorphan. The method, then:
The inhibition of CYP2C9 and CYP2D6 enzymatic activities by the compounds of the present invention was determined by the following test method.
• 1. Human liver microsomes (Corning 452117) • 2. NADPH (Solarbio 705Y021) • 3. Positive substrates diclofenac (Sigma SLBV3438), dextromethorphan (TRC 3-EDO-175-1) and midazolam (Cerilliant FE01161704) • 4. Positive inhibitors sulfaphenazole (D. Ehrenstorfer GmbH 109012), quinidine (TCI WEODL-RE) and ketoconazole (Sigma 100M1091V) • 5. AB Sciex Triple Quad 5500 liquid chromatography-mass spectrometry
1. Preparation of 100 mM phosphate buffered saline (PBS): 7.098 g of Na2HPO4 was weighed, 500 mL of pure water was added and subjected to ultrasonic dissolution to obtain solution A. 3.400 g of KH2PO4 was weighed, 250 mL of pure water was added and subjected to ultrasonic dissolution to obtain solution B. Solution A was placed on a stirrer and solution B was slowly added until pH reaches 7.4 to prepare 100 mM PBS buffer.
2. Preparation of 10 mM NADPH solution with 100 mM PBS buffer. 10 mM stock solution of compounds of the invention was diluted with DMSO to obtain a 200× concentration of compound working solution (6000, 2000, 600, 200, 60, 20, 0 µM). The stock solution of positive inhibitors was diluted with DMSO to obtain a 200× concentration of positive inhibitor working solution (sulfaphenazole, 1000, 300, 100, 30, 10, 3, 0 µM; quinidine/ketoconazole, 100, 30, 10, 3, 1, 0.3, 0 µM). A 200 × concentration of substrate working solution (120 µM of diclofenac, 400 µM of dextromethorphan, and 200 µM of midazolam) was prepared in water, acetonitrile, or acetonitrile/methanol.
3. 2 µl of 20 mg/ml liver microsome solution, 1 µl of substrate working solution, 1 µl of compound working solution and 176 µl of PBS buffer were taken, mixed uniformly, and pre-incubated in a 37° C. water bath for 15 minutes. […]
The IC50 values of the compounds of the present invention against CYP2C9 and CYP2D6 were calculated by Excel XLfit 5.3.1.3.
On the technique in general: Liver microsomes are vesicles of endoplasmic reticulum, rich in cytochrome P450 enzymes.

The nature of series [2]: Pharmacokinetic evaluation in mice. To be noted: CD-1 mice; for bioavailability: female, mouse, plasma, PO 10 mg/kg vs IV 1 mg/kg. Type of series: in vivo. The protocol: Six female CD-1 mice (20-30 g, 4-6 weeks) were randomized into 2 groups, 3 mice/group. Group 1 was given the test compound via tail vein injection at a dose of 1 mg/kg, and the vehicle was 5% DMSO in 10% HP-β-CD in water, and group 2 was given the test compound orally at a dose of 10 mg/kg, and the vehicle was 40% Tetraethylene Glycol (v/v), 7.5% Captisol (w/v) in water. Prior to the experiment, the animals were given food and water as usual. Before administration and 0.083 (only for the vein injection group), 0.25, 0.5, 1, 2, 4, 6, 8 and 24 h after administration, blood was sampled from the veins of the mice in each group. The whole blood sample collected was placed in a K2EDTA anticoagulation tube and centrifuged for 5 min (12,000 rpm, 4° C.) and then the plasma was taken for later detection.
10 µL of the mouse plasma sample was taken and 150 µL of acetonitrile solvent (wherein internal standard compound was contained) was added to precipitate proteins. After the mixture was vortexed for 5 min, centrifugation (14,000 rpm) was performed for 5 min. The supernatant was diluted 2-fold with water containing 0.1% (v/v) FA and injected into the LC-MS/MS system (AB Sciex Triple Quad 6500+) for the quantitative detection. A calibration standard curve was prepared in CD-1 mouse plasma along with quality control samples to determine the plasma concentration. For the 10x diluted samples, 2 µL of the sample was taken and 18 µL of blank plasma was added. After the mixture was vortexed for 0.5 min, 300 µL of acetonitrile solvent (wherein an internal standard compound was contained) was added to precipitate proteins. The other processing steps were identical to those for the samples not diluted.

Molecules are shown by their SMILES.

CYP2D6, sequence (P10635 whole entry): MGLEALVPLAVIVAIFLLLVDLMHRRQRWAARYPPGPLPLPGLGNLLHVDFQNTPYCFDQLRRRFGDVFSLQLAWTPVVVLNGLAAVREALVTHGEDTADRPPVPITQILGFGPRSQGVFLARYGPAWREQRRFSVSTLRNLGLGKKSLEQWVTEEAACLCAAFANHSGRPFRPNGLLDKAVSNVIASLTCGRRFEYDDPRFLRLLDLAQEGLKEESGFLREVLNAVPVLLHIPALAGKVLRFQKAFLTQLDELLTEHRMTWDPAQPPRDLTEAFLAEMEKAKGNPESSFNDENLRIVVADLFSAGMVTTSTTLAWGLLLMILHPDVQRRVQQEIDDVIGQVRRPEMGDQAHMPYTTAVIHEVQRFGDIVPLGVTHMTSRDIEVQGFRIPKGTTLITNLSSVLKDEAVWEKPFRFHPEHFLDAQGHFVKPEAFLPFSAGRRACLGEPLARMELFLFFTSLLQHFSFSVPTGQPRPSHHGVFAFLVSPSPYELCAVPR

As a reminder, the IC50 is the concentration that gives 50% inhibition. What is called bioavailability is dose-corrected exposure relative to a reference, in per cent. The low end stands for poor availability, the high end for good availability. The molecule `C[C@@H]1Cc2c([nH]c3ccccc23)C(c2c(F)cc(N[C@H]3CCN(CCCF)C3)cc2F)N1CC(F)(F)F` (stereo in doubt) [Example 4, (S)-N-(3,5-difluoro-4-((1S,3R)-3-methyl-2-(2,2,2-trifluoroethyl)-2,3,4,9-tetrahydro-1H-pyridino[3,4-b]indol-1-yl)phenyl)-1-(3-fluoropropyl)pyrrolidin-3-amine] had an IC50 in series [1] of 27 µM. In addition, in series [2] (IV 1 mg/kg), the Drug exposure stood at 639 ng·h/mL, the Maximum drug concentration stood at 78 ng/mL and the “Time of half drug elimination” value is reported as 21 h. In series [2] (PO 10 mg/kg), the Drug exposure came to 3853 ng·h/mL, the Maximum drug concentration was found to be 222 ng/mL, the “Time of half drug elimination” value was found to be 19 h and the “Time to peak drug concentration” value was 5 h. Moreover, the bioavailability in series [2] was 60%.
Turning to `C[C@@H]1Cc2c([nH]c3ccccc23)C(c2c(F)cc(N[C@H]3CCN(CCCF)C3)cc2F)N1CC(F)(F)CO` (stereo in doubt) [Example 7, 3-((1S,3R)-1-(2,6-difluoro-4-(((S)-1-(3-fluoropropyl)pyrrolidin-3-yl)amino)phenyl)-3-methyl-3,4-dihydro-1H-pyridino [3,4-b]indole-2(9H)-yl)-2,2-difluoropropane-1-ol], it took 23 µM to reach half-maximal inhibition in series [1] (IC50). Moreover, in series [2] (IV 1 mg/kg), the Drug exposure came to 879 ng·h/mL, the Maximum drug concentration is 259 ng/mL and the “Time of half drug elimination” value amounted to 5 h. In series [2] (PO 10 mg/kg), the Drug exposure is 5447 ng·h/mL, the Maximum drug concentration stood at 555 ng/mL, the “Time of half drug elimination” value turned out to be 4 h and the “Time to peak drug concentration” value came out at 1 h. In series [2], this molecule returned a bioavailability of 62%.
Regarding `C[C@@H]1Cc2c([nH]c3ccccc23)[C@@H](c2ccc(N[C@H]3CCN(CCCF)C3)cn2)N1CC(F)(F)F` [Example 3, N-((S)-1-(3-fluoropropyl)pyrrolidin-3-yl)-6-((1S,3R)-3-methyl-2-(2,2,2-trifluoroethyl)-2,3,4,9-tetrahydro-1H-pyridino[3,4-b]indol-1-yl)pyridine-3-amine], the IC50 in series [1] is > 30 µM. For the same molecule, in series [2] (IV 1 mg/kg), the Drug exposure was found to be 414 ng·h/mL, the Maximum drug concentration came to 98 ng/mL and the “Time of half drug elimination” value is 13 h. Besides, in series [2] (PO 10 mg/kg), the Drug exposure came to 2804 ng·h/mL, the Maximum drug concentration came to 219 ng/mL, the “Time of half drug elimination” value was determined as 9 h and the “Time to peak drug concentration” value is given as 3 h. This molecule registered a bioavailability in series [2] of 68%.

(Values after patent US20230348459A1, “PYRROLIDINE COMPOUND AND USE THEREOF” (SIMCERE PHARMACEUTICAL CO., LTD., priority 2020, published 2023).)
